From patent US10723705B2, “Heterocyclic compounds and uses thereof” (Incyte Corporation, priority 2015, dated 2020)

target: Human recombinant Histone Deacetylase 8 (HDAC8) (Homo sapiens (Human), UniProt Q9BY41); assay: HDAC8 Enzymatic Assay (HDAC-Glo I/II luminescence); type: biochemical; conditions: class symbols, Table 14; read-out: HDAC8 IC50
Protocol: HDAC-Glo™ I/II Assay Kit was purchased from Promega Corporation (Madison, Wis.), including the following components: HDAC-Glo I/II Buffer (25 mM Tris buffer, pH 8.0, supplemented with 137 mM: NaCl, 2.7 mM KCl, 1% v/v Triton X-100 and 1 mM: MgCl2), luminogenic substrates Boc-GAK(Ac)-aminoluciferin (HDAC-Glo I/II substrate), proprietary developer reagent (containing trypsin). Human recombinant Histone Deacetylase 8 (HDAC8) was purchased from Enzo Life Sciences (Plymouth Meeting, Pa.).
The HDAC8 reaction was performed at room temperature in white 384-well polystyrene, flat-bottom microtiter plate (Greiner Bio-one, Monroe, N.C.) in a final volume of 20 μL. Test compounds were first diluted serially in DMSO and 100 nL were transferred to the plate wells by Echo 550 (Labcyte, Sunnyvale, Calif.) before the addition of other reaction components. The final concentration of DMSO in the assay was 0.5%. The HDAC-Glo I/II assay reagent was prepared by rehydration of lyophilized HDAC-Glo I/II substrate in 10 mL. HDAC-Glo I/II assay buffer followed with the addition of 10 μL of developer reagent. 10 uL of 3 nM HDAC8 in the HDAC-Glo I/II assay buffer were first dispensed into the microliter plate containing the compounds and incubated at room temperature for 30 min. The reactions were initiated with the addition of 10 uL HDAC-Glo I/II assay reagent with Multidrop (Thermo, Waltham, Mass.). The final concentration of HDAC8 and HDAC-Glo I/II substrate in the reaction were 1.5 nM and 50 μM, respectively. The assay plate was mixed for 1 min by orbital shaking (500 rpm) and centrifuged for 1 min at 1500 rpm. After 15 min at room temperature, luminescence signals were measured on TopCount (Perkin Elmer). Wells with no compound served as the positive controls and wells containing no HDAC8 were used as negative controls. IC50 determination was performed by fitting the curve of percentage control activity versus the log of the compound concentration using the GraphPad Prism 6.0 software.

Chain of Human recombinant Histone Deacetylase 8 (HDAC8) (Q9BY41 whole entry): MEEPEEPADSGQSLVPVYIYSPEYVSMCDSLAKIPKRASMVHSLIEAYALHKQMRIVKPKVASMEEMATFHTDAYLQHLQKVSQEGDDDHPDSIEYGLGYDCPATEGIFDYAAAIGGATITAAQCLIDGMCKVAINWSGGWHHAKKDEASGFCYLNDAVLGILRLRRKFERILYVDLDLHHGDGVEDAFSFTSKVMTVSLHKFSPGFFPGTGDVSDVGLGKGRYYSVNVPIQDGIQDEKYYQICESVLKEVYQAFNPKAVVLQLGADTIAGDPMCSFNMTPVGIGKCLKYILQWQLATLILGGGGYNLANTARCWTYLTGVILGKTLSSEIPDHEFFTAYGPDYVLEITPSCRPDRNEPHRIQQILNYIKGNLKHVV

| SMILES | IC50 |
| --- | --- |
| N/C(=N\O)c1ccc(-c2ccc3nn(C(Cc4ccccc4)C(=O)NO)cc3c2)cc1 (stereo not drawn) [Compound I-0033, (Z)-N-hydroxy-2-(5-(4-(N′-hydroxy-carbamimidoyl)phen-yl)-2H-indazol-2-yl)-3-phenylpropanamide] | 50 to 200 nM |
| Cn1nccc1-c1ccc2nn(C(Cc3ccccc3)C(=O)NO)cc2c1 (stereo not drawn) [Compound I-0034, N-hydroxy-2-(5-(1-methyl-1H-pyrazol-5-yl)-2H-indazol-2-yl)-3-phenylpropanamide] | 200 to 500 nM |
| COc1ncc(-c2ccc3nn(C(Cc4ccccc4)C(=O)NO)cc3c2)cn1 (stereo not drawn) [Compound I-0035, N-hydroxy-2-(5-(2-methoxypyrimidin-5-yl)-2H-indazol-2-yl)-3-phenylpropanamide] | 200 to 500 nM |
| O=C(NO)C(Cc1ccccc1)n1cc2cc(-c3ccccc3)ccc2n1 (stereo not drawn) [Compound I-0036, N-hydroxy-3-phenyl-2-(5-phenyl-2H-indazol-2-yl)propanamide] | > 500 nM |
| O=C(NO)C(Cc1ccccc1)n1cc2ccc(F)cc2n1 (stereo not drawn) [Compound I-0037, 2-(6-fluoro-2H-indazol-2-yl)-N-hydroxy-3-phenylpropanamide] | > 500 nM |
| O=C(NO)C(Cc1ccccc1)n1cc2ccc(C(F)(F)F)cc2n1 (stereo not drawn) [Compound I-0038, N-hydroxy-3-phenyl-2-(6-(trifluoromethyl)-2H-indazol-2-yl)propanamide] | > 500 nM |
| Cc1cc2cn(C(Cc3ccccc3)C(=O)NO)nc2cc1Br (stereo not drawn) [Compound I-0039, 2-(6-bromo-5-methyl-2H-indazol-2-yl)-N-hydroxy-3-phenylpropanamide] | > 500 nM |
| Cc1ccc2cn(C(Cc3ccccc3)C(=O)NO)nc2c1 (stereo not drawn) [Compound I-0040, N-hydroxy-2-(6-methyl-2H-indazol-2-yl)-3-phenylpropanamide] | > 500 nM |
| O=C(NO)C(Cc1ccccc1)n1cnc2ccccc21 (stereo not drawn) [Compound I-0041, 2-(1H-benzo[d]imidazol-1-yl)-N-hydroxy-3-phenylpropanamide] | 200 to 500 nM |
| O=C(NO)C(Cc1ccccc1)n1ncc2cnccc21 (stereo not drawn) [Compound I-0042, N-hydroxy-3-phenyl-2-(1H-pyrazolo[4,3-c]pyridin-1-yl)propanamide] | 200 to 500 nM |
| O=C(NO)C(Cc1ccccc1)n1cc2cnccc2n1 (stereo not drawn) [Compound I-0043, N-hydroxy-3-phenyl-2-(2H-pyrazolo[4,3-c]pyridin-2-yl)propanamide] | > 500 nM |
| Cn1cc(-c2ccc3nn(C(Cc4ccccc4)C(=O)NO)c(C#CC4CC4)c3c2)cn1 (stereo not drawn) [Compound I-0044, 2-(3-(cyclopropylethynyl)-5-(1-methyl-1H-pyrazol-4-yl)-2H-indazol-2-yl)-N-hydroxy-3-phenylpropanamide] | 50 to 200 nM |
| O=C(NO)C(Cc1ccccc1)n1nc2ccc(-c3cccnc3)cc2c1C#CC1CC1 (stereo not drawn) [Compound I-0045, 2-(3-(cyclopropylethynyl)-5-(pyridin-3-yl)-2H-indazol-2-yl)-N-hydroxy-3-phenylpropanamide] | 50 to 200 nM |
| COc1ccc(-c2ccc3nn(C(Cc4ccccc4)C(=O)NO)c(C#CC4CC4)c3c2)cn1 (stereo not drawn) [Compound I-0046, 2-(3-(cyclopropylethynyl)-5-(6-methoxypyridin-3-yl)-2H-indazol-2-yl)-N-hydroxy-3-phenylpropanamide] | 200 to 500 nM |
| Cn1nccc1-c1ccc2cn(C(Cc3ccccc3)C(=O)NO)nc2c1 (stereo not drawn) [Compound I-0047, N-hydroxy-2-(6-(1-methyl-1H-pyrazol-5-yl)-2H-indazol-2-yl)-3-phenylpropanamide] | 200 to 500 nM |
| CN1CCC(c2ccc3cn(C(Cc4ccccc4)C(=O)NO)nc3c2)CC1 (stereo not drawn) [Compound I-0048, N-hydroxy-2-(6-(1-methylpiperidin-4-yl)-2H-indazol-2-yl)-3-phenylpropanamide] | > 500 nM |
| Cc1ccc2nn(C(Cc3ccccc3)C(=O)NO)cc2c1 (stereo not drawn) [Compound I-0049, N-hydroxy-2-(5-methyl-2H-indazol-2-yl)-3-phenylpropanamide] | > 500 nM |
| O=C(NO)C(Cc1ccccc1)n1cc2cc(-c3ccncc3)ccc2n1 (stereo not drawn) [Compound I-0050, N-hydroxy-3-phenyl-2-(5-(pyridin-4-yl)-2H-indazol-2-yl)propanamide] | 200 to 500 nM |
| O=C(NO)C(Cc1ccccc1)n1cc2cc(-c3cncnc3)ccc2n1 (stereo not drawn) [Compound I-0051, N-hydroxy-3-phenyl-2-(5-(pyrimidin-5-yl)-2H-indazol-2-yl)propanamide] | 200 to 500 nM |
| O=C(NO)C(Cc1ccccc1)n1cc2ccc(N3CCCCC3)cc2n1 (stereo not drawn) [Compound I-0052, N-hydroxy-3-phenyl-2-(6-(piperidin-1-yl)-2H-indazol-2-yl)propanamide] | > 500 nM |

| SMILES | IC50 |
| --- | --- |
| O=C(NO)C(Cc1ccccc1)n1cc2cncc(C#CC3CC3)c2n1 (stereo not drawn) [Compound I-0053, 2-(7-(cyclopropylethynyl)-2H-pyrazolo[4,3-c]pyridin-2-yl)-N-hydroxy-3-phenylpropanamide] | 200 to 500 nM |
| O=C(NO)C(Cc1ccccc1)n1cc2cncc(I)c2n1 (stereo not drawn) [Compound I-0054, N-hydroxy-2-(7-iodo-2H-pyrazolo[4,3-c]pyridin-2-yl)-3-phenylpropanamide] | > 500 nM |
| O=C(NO)C(Cc1ccccc1)n1ncc2c(Cl)nccc21 (stereo not drawn) [Compound I-0055, 2-(4-chloro-1H-pyrazolo[4,3-c]pyridin-1-yl)-N-hydroxy-3-phenylpropanamide] | 200 to 500 nM |
| O=C(NO)C(Cc1ccccc1)n1cc2c(Cl)nccc2n1 (stereo not drawn) [Compound I-0056, 2-(4-chloro-2H-pyrazolo[4,3-c]pyridin-2-yl)-N-hydroxy-3-phenylpropanamide] | > 500 nM |
| CN1CC=C(c2cccc3nn(C(Cc4ccccc4)C(=O)NO)cc23)CC1 (stereo not drawn) [Compound I-0057, N-hydroxy-2-(4-(1-methyl-1,2,3,6-tetrahydropyridin-4-yl)-2H-indazol-2-yl)-3-phenylpropanamide] | > 500 nM |
| O=C(NO)C(Cc1ccccc1)n1cc2c(-c3ccncc3)cccc2n1 (stereo not drawn) [Compound I-0058, N-hydroxy-3-phenyl-2-(4-(pyridin-4-yl)-2H-indazol-2-yl)propanamide] | 200 to 500 nM |
| O=C(NO)C(Cc1ccccc1)n1cc2c(N3CCOCC3)cccc2n1 (stereo not drawn) [Compound I-0059, N-hydroxy-2-(4-morpholino-2H-indazol-2-yl)-3-phenylpropanamide] | > 500 nM |
| O=C(NO)C(Cc1ccccc1)n1cc2c(-c3ccccc3)cccc2n1 (stereo not drawn) [Compound I-0060, N-hydroxy-3-phenyl-2-(4-phenyl-2H-indazol-2-yl)propanamide] | > 500 nM |
| Cn1nccc1-c1cccc2nn(C(Cc3ccccc3)C(=O)NO)cc12 (stereo not drawn) [Compound I-0061, N-hydroxy-2-(4-(1-methyl-1H-pyrazol-5-yl)-2H-indazol-2-yl)-3-phenylpropanamide] | 200 to 500 nM |
| O=C(NO)C(Cc1ccccc1)n1cc2c(C3CC3)cccc2n1 (stereo not drawn) [Compound I-0062, 2-(4-cyclopropyl-2H-indazol-2-yl)-N-hydroxy-3-phenylpropanamide] | > 500 nM |
| O=C(NO)C(Cc1ccccc1)n1cc2c(-c3cncnc3)cccc2n1 (stereo not drawn) [Compound I-0063, N-hydroxy-3-phenyl-2-(4-(pyrimidin-5-yl)-2H-indazol-2-yl)propanamide] | 200 to 500 nM |
| Cc1cccc2nn(C(Cc3ccccc3)C(=O)NO)cc12 (stereo not drawn) [Compound I-0064, N-hydroxy-2-(4-methyl-2H-indazol-2-yl)-3-phenylpropanamide] | > 500 nM |
| CN1CCC(c2cccc3nn(C(Cc4ccccc4)C(=O)NO)cc23)CC1 (stereo not drawn) [Compound I-0065, N-hydroxy-2-(4-(1-methylpiperidin-4-yl)-2H-indazol-2-yl)-3-phenylpropanamide] | > 500 nM |
| O=C(NO)C(Cc1ccccc1)n1cc2cccc(-c3ccccc3)c2n1 (stereo not drawn) [Compound I-0066, N-hydroxy-3-phenyl-2-(7-phenyl-2H-indazol-2-yl)propanamide] | > 500 nM |
| Cn1nccc1-c1cccc2cn(C(Cc3ccccc3)C(=O)NO)nc12 (stereo not drawn) [Compound I-0067, N-hydroxy-2-(7-(1-methyl-1H-pyrazol-5-yl)-2H-indazol-2-yl)-3-phenylpropanamide] | 50 to 200 nM |
| O=C(NO)C(Cc1ccccc1)n1cc2cccc(Br)c2n1 (stereo not drawn) [Compound I-0068, 2-(7-bromo-2H-indazol-2-yl)-N-hydroxy-3-phenylpropanamide] | 200 to 500 nM |
| Cn1nccc1-c1nccc2c1cnn2C(Cc1ccccc1)C(=O)NO (stereo not drawn) [Compound I-0069, N-hydroxy-2-(4-(1-methyl-1H-pyrazol-5-yl)-1H-pyrazolo[4,3-c]pyridin-1-yl)-3-phenylpropanamide] | 50 to 200 nM |
| O=C(NO)C(Cc1ccccc1)n1ncc2c(-c3ccncc3)nccc21 (stereo not drawn) [Compound I-0070, N-hydroxy-3-phenyl-2-(4-(pyridin-4-yl)-1H-pyrazolo[4,3-c]pyridin-1-yl)propanamide] | 50 to 200 nM |
| O=C(NO)C(Cc1ccccc1)n1ncc2c(-c3cncnc3)nccc21 (stereo not drawn) [Compound I-0071, N-hydroxy-3-phenyl-2-(4-(pyrimidin-5-yl)-1H-pyrazolo[4,3-c]pyridin-1-yl)propanamide] | 50 to 200 nM |
